# Laboratory results published in patent publication US8551999B2, “Heterocyclic compound and pharmaceutical composition thereof” (Otsuka Pharmaceutical Co., Ltd., priority 2007, dated 2013).
row,melting point [°C],Structure (SMILES)
1,168.4 to 168.6,"CN(c1ccc(Oc2ccc3cc(C(=O)N4CCN(Cc5ccc(OCC(F)F)cc5)CC4)n(C)c3c2)nc1)S(=O)(=O)c1ccc(Cl)c(Cl)c1 [Example 512, 3,4-Dichloro-N-[6-(2-{4-[4-(2,2-difluoroethoxy)benzyl]piperazine-1-carbonyl}-1-methyl-1H-indol-6-yloxy)pyridin-3-yl]-N-methyl-benzenesulfonamide]"
2,195.2 to 196.8,"CN(c1ccc(Oc2ccc3cc(C(=O)N4CCN(Cc5ccc(OCCF)cc5)CC4)n(C)c3c2)nc1)S(=O)(=O)c1ccc(Cl)c(Cl)c1 [Example 513, 3,4-Dichloro-N-[6-(2-{4-[4-(2-fluoroethoxy)benzyl]piperazine-1-carbonyl}-1-methyl-1H-indol-6-yloxy)pyridin-3-yl]-N-methyl-benzenesulfonamide]"
3,194.1 to 195.8,"CN(c1ccc(Oc2ccc3cc(C(=O)N4CCN(Cc5ccc(OCC6CC6)cc5)CC4)n(C)c3c2)nc1)S(=O)(=O)c1ccc(Cl)c(Cl)c1 [Example 514, 3,4-Dichloro-N-(6-{2-[4-(4-cyclopropylmethoxybenzyl)piperazine-1-carbonyl]-1-methyl-1H-indol-6-yloxy}pyridin-3-yl)-N-methyl-benzenesulfonamide]"
4,143.4 to 147.2,"CN(c1ccc(Oc2ccc3cc(C(=O)N4CCN(Cc5ccc(OC(F)F)cc5)CC4)n(C)c3c2)nc1)S(=O)(=O)c1ccc(Cl)c(Cl)c1 [Example 515, 3,4-Dichloro-N-(6-{2-[4-(4-difluoromethoxybenzyl)piperazine-1-carbonyl]-1-methyl-1H-indol-6-yloxy}pyridin-3-yl)-N-methyl-benzenesulfonamide]"
5,179.1 to 179.7,"CC(C)Oc1ccc(CN2CCN(C(=O)c3cc4ccc(Oc5ccc(N(C)S(=O)(=O)c6ccc(Cl)c(Cl)c6)cn5)cc4n3C)CC2)cn1 [Example 517, 3,4-Dichloro-N-(6-{2-[4-(6-isopropoxypyridin-3-ylmethyl)-piperazine-1-carbonyl]-1-methyl-1H-indol-6-yloxy}pyridin-3-yl)-N-methylbenzenesulfonamide]"
6,116.5 to 116.6,"Cc1ccc(S(=O)(=O)N(C)c2ccc(Oc3ccc4cc(C(=O)N5CCN(Cc6ccc(OC(CF)CF)cc6)CC5)n(C)c4c3)nc2)cc1 [Example 523, N-[6-(2-{4-[4-(2-Fluoro-1-fluoromethylethoxy)benzyl]piperazine-1-carbonyl}-1-methyl-1H-indol-6-yloxy)pyridin-3-yl]-4,N-dimethyl-benzenesulfonamide]"
7,121.9 to 122.5,"Cc1ccc(S(=O)(=O)N(C)c2ccc(Oc3ccc4cc(C(=O)N5CCN(Cc6ccc(OCC(F)F)cc6)CC5)n(C)c4c3)nc2)cc1 [Example 524, N-[6-(2-{4-[4-(2,2-Difluoroethoxy)benzyl]piperazine-1-carbonyl}-1-methyl-1H-indol-6-yloxy)pyridin-3-yl]-4,N-dimethylbenzene-sulfonamide]"
8,191.8 to 194.4,"CN(c1ccc(Oc2ccc3c(c2)cc(C(=O)N2CCN(Cc4ccc(OCC(F)(F)F)cc4)CC2)n3C)nc1)S(=O)(=O)c1ccc(C(F)(F)F)cc1 [Example 527, N-Methyl-N-[6-(1-methyl-2-{4-[4-(2,2,2-trifluoroethoxy)benzyl]-piperazine-1-carbonyl}-1H-indol-5-yloxy)pyridin-3-yl]-4-tri-fluoromethylbenzenesulfonamide]"
9,174.8 to 175.8,"CN(c1ccc(Oc2ccc3c(c2)cc(C(=O)N2CCN(Cc4ccc(OCC(F)(F)F)cc4)CC2)n3C)nc1)S(=O)(=O)c1ccc(Cl)c(Cl)c1 [Example 528, 3,4-Dichloro-N-methyl-N-[6-(1-methyl-2-{4-[4-(2,2,2-trifluoro-ethoxy)benzyl]piperazine-1-carbonyl}-1H-indol-5-yloxy)pyridin-3-yl]benzenesulfonamide]"

# Continued, compound first:
row,Structure (SMILES),melting point [°C]
1,"Br.CCCc1ccc(CN2CCN(C(=O)c3cc4ccc(Oc5ccc(NC(=O)c6ccc(C(F)(F)F)cc6)cn5)cc4n3C)CC2)cc1 [Example 478, N-(6-{1-Methyl-2-[4-(4-propylbenzyl)piperazine-1-carbonyl]-1H-indol-6-yloxy}pyridin-3-yl)-4-trifluoromethylbenzamide hydrobromide]",267 to 268.2
2,"Br.Cn1c(C(=O)N2CCN(Cc3ccc(OCC(F)F)cc3)CC2)cc2ccc(Oc3ccc(NC(=O)c4ccc(C(F)(F)F)cc4)cn3)cc21 [Example 479, N-[6-(2-{4-[4-(2,2-Difluoroethoxy)benzyl]piperazine-1-carbonyl}-1-methyl-1H-indol-6-yloxy)pyridin-3-yl]-4-trifluoromethyl-benzamide hydrobromide]",260.7 to 261.2
3,"Br.CCCOc1ccc(CN2CCN(C(=O)c3cc4cc(Oc5ccc(NC(=O)c6ccc(C(F)(F)F)cc6)cn5)ccc4n3C)CC2)cc1 [Example 481, N-(6-{1-Methyl-2-[4-(4-propoxybenzyl)piperazine-1-carbonyl]-1H-indol-5-yloxy}pyridin-3-yl)-4-trifluoromethylbenzamide hydrobromide]",234.7 to 235.1
4,"Br.CN(C(=O)c1ccc(Cl)c(Cl)c1)c1ccc(Oc2ccc3cc(C(=O)N4CCN(Cc5ccc(OCCF)cc5)CC4)n(C)c3c2)nc1 [Example 482, 3,4-Dichloro-N-[6-(2-{4-[4-(2-fluoroethoxy)benzyl]piperazine-1-carbonyl}-1-methyl-1H-indol-6-yloxy)pyridin-3-yl]-N-methyl-benzamide hydrobromide]",186.9 to 188.8
5,"Br.CN(C(=O)c1ccc(Cl)c(Cl)c1)c1ccc(Oc2ccc3cc(C(=O)N4CCN(Cc5ccc(OCC(F)F)cc5)CC4)n(C)c3c2)nc1 [Example 483, 3,4-Dichloro-N-[6-(2-{4-[4-(2,2-difluoroethoxy)benzyl]piperazine-1-carbonyl}-1-methyl-1H-indol-6-yloxy)pyridin-3-yl]-N-methyl-benzamide hydrobromide]",182.4 to 184.6
6,"Br.CN(C(=O)c1ccc(Cl)c(Cl)c1)c1ccc(Oc2ccc3cc(C(=O)N4CCN(Cc5ccc(OCC(F)(F)F)cc5)CC4)n(C)c3c2)nc1 [Example 484, 3,4-Dichloro-N-methyl-N-[6-(1-methyl-2-{4-[4-(2,2,2-trifluoro-ethoxy)benzyl]piperazine-1-carbonyl}-1H-indol-6-yloxy)pyridin-3-yl]benzamide hydrobromide]",197.1 to 201.5
7,"Br.CN(C(=O)c1ccc(Cl)c(Cl)c1)c1ccc(Oc2ccc3cc(C(=O)N4CCN(Cc5ccc(OC(CF)CF)cc5)CC4)n(C)c3c2)nc1 [Example 485, 3,4-Dichloro-N-[6-(2-{4-[4-(2-fluoro-1-fluoromethylethoxy)-benzyl]piperazine-1-carbonyl}-1-methyl-1H-indol-6-yloxy)pyridin-3-yl]-N-methylbenzamide hydrobromide]",188.2 to 191.8
8,"Br.CC(C)Oc1ccc(CN2CCN(C(=O)c3cc4ccc(Oc5ccc(N(C)C(=O)c6ccc(Cl)c(Cl)c6)cn5)cc4n3C)CC2)cc1 [Example 486, 3,4-Dichloro-N-(6-{2-[4-(4-isopropoxybenzyl)piperazine-1-carbonyl]-1-methyl-1H-indol-6-yloxy}pyridin-3-yl)-N-methyl-benzamide hydrobromide]",220.2 to 223.5
9,"Br.CCCOc1ccc(CN2CCN(C(=O)c3cc4ccc(Oc5ccc(N(C)C(=O)c6ccc(Cl)c(Cl)c6)cn5)cc4n3C)CC2)cc1 [Example 487, 3,4-Dichloro-N-methyl-N-(6-{1-methyl-2-[4-(4-propoxybenzyl)-piperazine-1-carbonyl]-1H-indol-6-yloxy}pyridin-3-yl)benzamide hydrobromide]",204.9 to 208.5
10,"Br.CN(C(=O)c1ccc(Cl)c(Cl)c1)c1ccc(Oc2ccc3cc(C(=O)N4CCN(Cc5ccc(OC(F)F)cc5)CC4)n(C)c3c2)nc1 [Example 488, 3,4-Dichloro-N-(6-{2-[4-(4-difluoromethoxybenzyl)piperazine-1-carbonyl]-1-methyl-1H-indol-6-yloxy}pyridin-3-yl)-N-methyl-benzamide hydrobromide]",185.6 to 189.3
11,"Br.CN(C(=O)c1ccc(Cl)c(Cl)c1)c1ccc(Oc2ccc3cc(C(=O)N4CCN(Cc5ccc6c(c5)OC(F)(F)O6)CC4)n(C)c3c2)nc1 [Example 489, 3,4-Dichloro-N-(6-{2-[4-(2,2-difluorobenzo[1,3]dioxol-5-yl-methyl)piperazine-1-carbonyl]-1-methyl-1H-indol-6-yloxy}pyridin-3-yl)-N-methylbenzamide hydrobromide]",225.4 to 227.1
12,"Cn1c(C(=O)N2CCN(Cc3ccc(OC(CF)CF)cc3)CC2)cc2ccc(Oc3ccc(NS(=O)(=O)C4=CC=C(Cl)C(C)(Cl)C4)cn3)cc21 (stereo not drawn) [Example 506, 3,4-Dichloro-N-[6-(2-{4-[4-(2-fluoro-1-fluoromethylethoxy)-benzyl]piperazine-1-carbonyl}-1-methyl-1H-indol-6-yloxy)pyridin-3-yl]-M-methylbenzenesulfonamide]",157.7 to 160.2
13,"CN(c1ccc(Oc2ccc3cc(C(=O)N4CCN(Cc5ccc6c(c5)OC(F)(F)O6)CC4)n(C)c3c2)nc1)S(=O)(=O)c1ccc(Cl)c(Cl)c1 [Example 508, 3,4-Dichloro-N-(6-{2-[4-(2,2-difluorobenzo[1,3]dioxol-5-yl-methyl)piperazine-1-carbonyl]-1-methyl-1H-indol-6-yloxy}pyridin-3-yl)-N-methylbenzenesulfonamide]",149.9 to 151.3
14,"Br.CCCOc1ccc(CN2CCN(C(=O)c3cc4ccc(Oc5ccc(NS(=O)(=O)c6ccc(C(F)(F)F)cc6)cn5)cc4n3C)CC2)cc1 [Example 511, N-(6-{1-Methyl-2-[4-(4-propoxybenzyl)piperazine-1-carbonyl]-1H-indol-6-yloxy}pyridin-3-yl)-4-trifluoromethylbenzenesulfonamide hydrobromide]",223.7 to 224.8
15,"CC(C)CCOc1ccc(CN2CCN(C(=O)c3cc4ccc(Oc5ccc(N(C)S(=O)(=O)c6ccc(Cl)c(Cl)c6)cn5)cc4n3C)CC2)cc1 [Example 516, 3,4-Dichloro-N-methyl-N-[6-(1-methyl-2-{4-[4-(3-methylbutoxy)-benzyl]piperazine-1-carbonyl}-1H-indol-6-yloxy)pyridin-3-yl]-benzenesulfonamide]",145.9 to 147.1
